Experimental data as given in US11584755B2 (IDEAYA BIOSCIENCES, INC., priority 2017, dated 2023).

Biological target: hFEN1 (Homo sapiens (Human), UniProt P39748)
Experiment: Enzymatic IC50 assay, FAM-labeled DNA oligomer substrate, fluorescence intensity (FEN1)
Type: biochemical
Details: hFEN1 70 pM, substrate 100 nM, reaction time 20 minutes, 23° C.
Method: FEN1, EXO1 or XPG enzyme was incubated with compound or vehicle (DMSO) and the FAM-labeled DNA oligomer substrate in a microtiter plate. The stop buffer contains EDTA to stop the enzymatic reaction. The plate is read for fluorescence intensity. The high control (DMSO) with high fluorescence intensity represents no inhibition of enzymatic reaction while the low control (10 μM) with low fluorescence intensity represents full inhibition of enzymatic reaction.
• FEN1 • hFEN1: 70 pM • Substrate: 100 nM • Reaction time: 20 minutes • EXO1 • hEXO1: 6 nM, Isoforml • Substrate: 30 nM • Reaction time: 60 minutes • XPG • hXPG: 100 nM • Substrate: 100 nM • Reaction time: 120 minutes
Annealing Buffer: 50 mM Tris-HCl, 50 mM NaCl, 1 mM DTT Assay buffer: 50 mM Tris-HCl pH 8.0, 10 mM MgCl2, 0.01% BSA, 1 mM DTT Stop buffer: 50 mM EDTA in assay buffer Temperature: 23° C. Total volume: 40 μl Controls: • 0% inhibition control: DMSO • 100% inhibition control: 10 μM (final) 5-chloro-3-hydroxy-1,3-dihydroquinazoline-2,4-dione Enzyme Reaction and Detection: • 1. Prepare 25 μM intermediate stock of the substrate by diluting SEQ ID NO:1, SEQ ID NO:2, and SEQ ID NO:3 in annealing buffer, in a PCR tube. • 2. Place the PCR tube on a heat block, heat at 95° C. for 3 minutes, then drop in 0.2° C. increments over 2 minutes, stopping at 25° C. • 3. Remove the tube and let the tube cool at room temperature. • 4. Transfer 10 μL of 3× final concentration test compounds or DMSO to the appropriate wells of a microtiter plate. • 5. Transfer 10 μL of 3× final concentration enzyme in assay buffer or assay buffer alone to the appropriate wells. • 6. Incubate the plate at room temperature for 15 minutes. • 7. Transfer 10 μL of 3× substrate in assay buffer to all the test wells. • 8. Incubate the plate at room temperature for prescribed reaction time. • 9. Centrifuge the plate at 1000 rpm for 1 minute. • 10. Transfer 10 μL of stop buffer to all the test wells. • 11. Centrifuge the plate at 1000 rpm for 1 minute. • 12. Read the plate on a plate reader.

hFEN1, sequence (P39748 whole entry): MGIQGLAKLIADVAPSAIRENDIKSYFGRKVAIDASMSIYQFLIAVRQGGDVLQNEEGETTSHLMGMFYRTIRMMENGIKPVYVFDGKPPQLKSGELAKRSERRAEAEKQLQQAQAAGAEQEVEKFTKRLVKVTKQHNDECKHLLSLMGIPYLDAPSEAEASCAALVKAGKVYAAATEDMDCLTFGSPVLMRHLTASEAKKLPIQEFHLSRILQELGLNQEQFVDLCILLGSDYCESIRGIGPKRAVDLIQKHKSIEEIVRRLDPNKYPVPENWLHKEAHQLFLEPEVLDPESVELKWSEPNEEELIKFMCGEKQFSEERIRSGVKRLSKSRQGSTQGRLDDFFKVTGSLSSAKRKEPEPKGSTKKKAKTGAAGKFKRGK

| SMILES | IC50 [nM] |
| --- | --- |
| COc1ccc(Cn2c(=O)c(O)c(C(=O)O)c3sc(CC(C)C)cc32)cc1 [Example 157, 6-hydroxy-2-isobutyl-4-(4-methoxybenzyl)-5-oxo-4,5-dihydrothieno[3,2-b]pyridine-7-carboxylic acid] | 2250 to 10000 |
| O=C(O)c1c(O)c(=O)n(Cc2ccncc2)c2ccsc12 [Example 47, 6-hydroxy-5-oxo-4-(pyridin-4-ylmethyl)-4,5-dihydrothieno[3,2-b]pyridine-7-carboxylic acid] | 2250 to 10000 |
| O=C(O)c1c(O)c(=O)n(Cc2cccnc2)c2ccsc12 [Example 60, 6-hydroxy-5-oxo-4-(pyridin-3-ylmethyl)-4,5-dihydrothieno[3,2-b]pyridine-7-carboxylic acid] | 750 to 2250 |
| O=C(O)c1c(O)c(=O)n(CC2CCCO2)c2ccsc12 (stereo not shown) [Example 8, 6-hydroxy-5-oxo-4-(tetrahydrofuran-2-ylmethyl)thieno[3,2-b]pyridine-7-carboxylic acid] | 750 to 2250 |
| CC(=O)Nc1ccccc1-n1cc(Cn2c(=O)c(O)c(C(=O)O)c3sccc32)cn1 [Example 109, 4-{[1-(2-acetamidophenyl)-1H-pyrazol-4-yl]methyl}-6-hydroxy-5-oxo-4,5-dihydrothieno[3,2-b]pyridine-7-carboxylic acid] | 750 to 2250 |
| O=C(O)c1c(O)c(=O)n(Cc2ccc3[nH]c(=O)ccc3c2)c2ccsc12 [Example 17, 6-hydroxy-5-oxo-4-[(2-oxo-1H-quinolin-6-yl)methyl]thieno[3,2-b]pyridine-7-carboxylic acid] | 750 to 2250 |
| CC(C)(C)OC(=O)Nc1ccc(Cn2c(=O)c(O)c(C(=O)O)c3sccc32)cc1 [Example 15, 4-(4-((tert-butoxycarbonyl)amino)benzyl)-6-hydroxy-5-oxo-4,5-dihydrothieno[3,2-b]pyridine-7-carboxylic acid] | < 200 |
| O=C(O)c1c(O)c(=O)n(Cc2cncc3ccccc23)c2ccsc12 [Example 104, 6-hydroxy-4-(isoquinolin-4-ylmethyl)-5-oxo-4,5-dihydrothieno[3,2-b]pyridine-7-carboxylic acid] | 2250 to 10000 |
| O=C(O)c1c(O)c(=O)n(Cc2ccc(OC(F)(F)F)cc2)c2ccsc12 [Example 56, 6-hydroxy-5-oxo-4-(4-(trifluoromethoxy)benzyl)-4,5-dihydrothieno[3,2-b]pyridine-7-carboxylic acid] | 2250 to 10000 |
| N#Cc1ccccc1Cn1c(=O)c(O)c(C(=O)O)c2sccc21 [Example 54, 4-(2-cyanobenzyl)-6-hydroxy-5-oxo-4,5-dihydrothieno[3,2-b]pyridine-7-carboxylic acid] | 2250 to 10000 |
| CC(=O)Nc1ccccc1Cn1c(=O)c(O)c(C(=O)O)c2sccc21 [Example 39, 4-(2-acetamidobenzyl)-6-hydroxy-5-oxo-4,5-dihydrothieno[3,2-b]pyridine-7-carboxylic acid] | 2250 to 10000 |
| Cn1nc(Cn2c(=O)c(O)c(C(=O)O)c3sccc32)c2ccccc21 [Example 51] | 2250 to 10000 |
| O=C(O)c1c(O)c(=O)n(Cc2ccccn2)c2ccsc12 [Example 38, 6-hydroxy-5-oxo-4-(pyridin-2-ylmethyl)-4,5-dihydrothieno[3,2-b]pyridine-7-carboxylic acid] | 2250 to 10000 |
| O=C(O)c1c(O)c(=O)n(Cc2cn3ccccc3n2)c2ccsc12 [Example 102, 6-hydroxy-4-(imidazo[1,2-a]pyridin-2-ylmethyl)-5-oxo-4,5-dihydrothieno[3,2-b]pyridine-7-carboxylic acid] | 750 to 2250 |
| O=C(O)c1c(O)c(=O)n(Cc2ccc3ccc(=O)[nH]c3c2)c2ccsc12 [Example 77, 6-hydroxy-5-oxo-4-[(2-oxo-1,2-dihydroquinolin-7-yl)methyl]-4,5-dihydrothieno[3,2-b]pyridine-7-carboxylic acid] | 250 to 750 |

Next, values leading:

| IC50 [nM] | SMILES |
| --- | --- |
| < 200 | COc1ccccc1-n1cc(Cn2c(=O)c(O)c(C(=O)O)c3sccc32)cn1 [Example 106, 6-hydroxy-4-{[1-(2-methoxyphenyl)-1H-pyrazol-4-yl]methyl}-5-oxo-4,5-dihydrothieno[3,2-b]pyridine-7-carboxylic acid] |
| 250 to 750 | CNC(=O)c1ccc(Cn2c(=O)c(O)c(C(=O)O)c3sccc32)cc1 [Example 67, 6-hydroxy-4-(4-(methylcarbamoyl)benzyl)-5-oxo-4,5-dihydrothieno[3,2-b]pyridine-7-carboxylic acid] |
| 250 to 750 | O=C1CC(Cn2c(=O)c(O)c(C(=O)O)c3sccc32)CN1 (stereo not shown) [Example 76, 6-hydroxy-5-oxo-4-[(5-oxopyrrolidin-3-yl)methyl]-4,5-dihydrothieno[3,2-b]pyridine-7-carboxylic acid] |
| 250 to 750 | O=C(O)c1c(O)c(=O)n(Cc2cnn(-c3ccncc3)c2)c2ccsc12 [Example 112, 6-hydroxy-5-oxo-4-{[1-(pyridin-4-yl)-1H-pyrazol-4-yl]methyl}-4,5-dihydrothieno[3,2-b]pyridine-7-carboxylic acid] |
| 250 to 750 | COc1cccc(Cn2c(=O)c(O)c(C(=O)O)c3sccc32)c1 [Example 52, 6-hydroxy-4-(3-methoxybenzyl)-5-oxo-4,5-dihydrothieno[3,2-b]pyridine-7-carboxylic acid] |
| 250 to 750 | O=C(O)c1c(O)c(=O)n(Cc2cccc(F)c2)c2ccsc12 [Example 11, 4-(3-fluorobenzyl)-6-hydroxy-5-oxo-4,5-dihydrothieno[3,2-b]pyridine-7-carboxylic acid] |
| < 200 | O=C(O)c1c(O)c(=O)n(Cc2cnn(Cc3cncnc3)c2)c2ccsc12 [Example 135, 6-hydroxy-5-oxo-4-{[1-(pyrimidin-5-ylmethyl)-1H-pyrazol-4-yl]methyl}-4,5-dihydrothieno[3,2-b]pyridine-7-carboxylic acid] |
| 250 to 750 | Cc1nnc(Cn2c(=O)c(O)c(C(=O)O)c3sccc32)s1 [Example 94, 6-hydroxy-4-[(5-methyl-1,3,4-thiadiazol-2-yl)methyl]-5-oxo-4,5-dihydrothieno[3,2-b]pyridine-7-carboxylic acid] |
| 250 to 750 | COc1ccc(Cn2c(=O)c(O)c(C(=O)O)c3sccc32)cc1OC [Example 71, 4-(3,4-dimethoxybenzyl)-6-hydroxy-5-oxo-4,5-dihydrothieno[3,2-b]pyridine-7-carboxylic acid] |
| 250 to 750 | O=C(O)c1c(O)c(=O)n(Cc2ccc(Cl)c(Cl)c2)c2ccsc12 [Example 59, 4-(3,4-dichlorobenzyl)-6-hydroxy-5-oxo-4,5-dihydrothieno[3,2-b]pyridine-7-carboxylic acid] |
| 250 to 750 | Cc1ncc(Cn2c(=O)c(O)c(C(=O)O)c3sccc32)o1 [Example 95, 6-hydroxy-4-[(2-methyloxazol-5-yl)methyl]-5-oxo-4,5-dihydrothieno[3,2-b]pyridine-7-carboxylic acid] |
| < 200 | N#Cc1ccc(-n2cc(Cn3c(=O)c(O)c(C(=O)O)c4sccc43)cn2)cc1 [Example 110, 4-{[1-(4-cyanophenyl)-1H-pyrazol-4-yl]methyl}-6-hydroxy-5-oxo-4,5-dihydrothieno[3,2-b]pyridine-7-carboxylic acid] |
| < 200 | Cc1nn(C)cc1Cn1cc(Cn2c(=O)c(O)c(C(=O)O)c3sccc32)cn1 [Example 134, 4-({1-[(1,3-dimethyl-1H-pyrazol-4-yl)methyl]-1H-pyrazol-4-yl}methyl)-6-hydroxy-5-oxo-4,5-dihydrothieno[3,2-b]pyridine-7-carboxylic acid] |
